# In paper PMC3933419, “Synthesis and Properties of a Selective Inhibitor of Homeodomain–Interacting Protein Kinase 2 (HIPK2)” (PLoS ONE, 2014):
# Where “and” joins values, the source holds several entries; their conditions need not be identical. Equal entries are not always repeated.
# How the values were obtained:
# CK2 = target: T1, CK2 (Rattus norvegicus, UniProt P19139); experiment: CK2 phosphorylation assay; format: biochemical; details: 20 µM ATP
# T1 construct: Native CK2 and CK1 were purified from rat liver; from tissue; host or cells: rat liver
# Method: (§1) Native CK2 and CK1 were purified from rat liver.
# (§2) PIM1, CK2, CK1 phosphorylation assays were performed following similar procedures used for HIPK2 except that preincubation was omitted. In detail, PIM1 activity was determined at 100 µM ATP concentration and in the presence of 30 µM synthetic peptide substrate […]. CK2 and CK1 activities were assayed in a buffer containing 50 mM Tris/HCl (pH 7.5), 100 mM NaCl, 12 mM MgCl2, 100 µM specific peptide substrate […] (for CK2), or 200 µM […] (for CK1) and 20 µM [γ-^33P]ATP (500–1000 c.p.m./pmol).
# CK1 = CK1 phosphorylation assay; format: biochemical, rat; details: 20 µM ATP
# Method: as §1, §2
# HIPK2 = target: T2, HIPK2 (Homo sapiens, UniProt Q9H2X6); experiment: HIPK2 kinase inhibition assay (33P-ATP, peptide […]); format: biochemical; details: 20 µM ATP; in vitro
# T2 construct: The source of HIPK2 and of all of the other protein kinases used for specificity assays is as described elsewhere
# Method: The source of HIPK2 and of all of the other protein kinases used for specificity assays is as described elsewhere. […] The reaction was stopped by addition of 5 μl of 0.5 M orthophosphoric acid before spotting aliquots onto phosphocellulose filters. Filters were washed in 75 mM phosphoric acid (5-10 ml/each) four times and then once in methanol and dried before counting.
# Ser46 of p53 = experiment: Phosphorylation of p53 Ser46 in treated CEM cells (WB); format: cell-based, human; details: 6 h treatment
# Method: Treatments with TBID were performed in the same medium but with 1% fetal calf serum; control cells were treated with the solvent (DMSO). Total cell lysates were prepared as in [29].
# Endogenous HIPK2 activity was evaluated by measuring the phosphorylation level of its target site Ser46 of p53: to this purpose, CEM cells were treated for 6 h as indicated, then lysed. […] Bands were quantified by Carestream Molecular Imaging Software (Kodak) and the obtained values were normalized to total p53 signal with a Cell Signaling Technology antibody; anti-actin (Sigma) was used as loading control.
# endogenous HIPK2 = target: T3, endogenous HIPK2 (Homo sapiens, UniProt Q9H2X6); experiment: Activity of HIPK2 immunoprecipitated from treated HepG2 cells; format: cell-based
# T3 construct: endogenous in cells; host or cells: HepG2
# Method: (§3) HepG2 cells (human hepatocellular carcinoma) were cultured in Dulbecco's modified Eagle's medium (DMEM; Sigma) supplemented with 10% fetal calf serum, 2 mM L-glutamine, 100 unit/ml penicillin and 100 µg/ml streptomycin; CEM cells (human T lymphoblastoid cells) were cultured n RPMI-1640 (Sigma) with the same supplements. Cells were cultured in an atmosphere containing 5% CO2, at 37°C. Treatments with TBID were performed in the same medium but with 1% fetal calf serum; control cells were treated with the solvent (DMSO). Total cell lysates were prepared as in [29].
# Alternatively, HIPK2 was immunoprecipitated with 2.5 µl anti-HIPK2 (Epitomics) from 350 µg of total lysate proteins deriving from HepG2 cells either treated or not with TBID following a protocol elsewhere described. An aspecific antibody was used as negative control. Immunoprecipitated HIPK2 activity was measured towards the specific peptide substrate ([…]) at 1.6 mM concentration, for 10 min at 30°C, under the same conditions described above for the in vitro kinase assay. Peptide radioactivity was measured after sample spotting on phospho-cellulose paper, washing and scintillation counting, as in [30], while the amount of HIPK2 immunoprecipitated was evaluated by WB.
# [1] = tested on: panel of 76 protein kinases; experiment: Selectivity parameters (Lorenz curve, Gini coefficient, hit rate) of TBID; format: biochemical
# Method: (§4) Conditions for the activity assays of all other protein kinases tested in selectivity experiments are as described or referenced in [9].
# Lorenz curves were derived from the selectivity data. Gini coefficients and hit rates (expressing the percent of kinases inhibited >50% by a given compound) were calculated as described in [25].
# GCK = GCK (Homo sapiens, UniProt Q12851); experiment: Kinase panel selectivity profiling; format: biochemical; details: TBID 1 μM, 125 kinase panel, read-out: % activity of the enzyme
# Source text: (§5) The source of HIPK2 and of all of the other protein kinases used for specificity assays is as described elsewhere.
# as §4
# PIM1 = target: T4, PIM1 (Homo sapiens, UniProt P11309); experiment: Kinase panel selectivity profiling; format: biochemical
# T4 construct: The source of HIPK2 and of all of the other protein kinases used for specificity assays is as described elsewhere
# Source text: as §5, §4
# MINK1 = MINK1 (Homo sapiens, UniProt Q8N4C8); experiment: Kinase panel selectivity profiling; format: biochemical; details: TBID 1 μM, 125 kinase panel, read-out: % activity of the enzyme
# Source text: as §5, §4
# TTK = TTK (Homo sapiens, UniProt P33981); experiment: Kinase panel selectivity profiling; format: biochemical; details: TBID 1 μM, 125 kinase panel, read-out: % activity of the enzyme
# Source text: as §5, §4
# p38g MAPK = p38g MAPK (Homo sapiens, UniProt P53778); experiment: Kinase panel selectivity profiling; format: biochemical; details: TBID 1 μM, 125 kinase panel, read-out: % activity of the enzyme
# Source text: as §5, §4
# MARK3 = MARK3 (Homo sapiens, UniProt P27448); experiment: Kinase panel selectivity profiling; format: biochemical; details: TBID 1 μM, 125 kinase panel, read-out: % activity of the enzyme
# Source text: as §5, §4
# DAPK1 = DAPK1 (Homo sapiens, UniProt P53355); experiment: Kinase panel selectivity profiling; format: biochemical; details: TBID 1 μM, 125 kinase panel, read-out: % activity of the enzyme
# Source text: as §5, §4
# HepG2 or CEM cells = experiment: Cell viability (MTT) and PARP cleavage; format: cell-based, human; details: 6 h, PARP (Figure 6C)
# Method: as §3
# Cell viability was evaluated by means of MTT (3-(4,5-dimethylthiazol-2-yl)-[…] bromide) reagent; 10^5 cells/100 µl were incubated in a 96-well plate and treated for 6 h as indicated. 1 h before the end of the incubation, 10 µl of MTT solution (5 mg/ml in PBS) was added to each well. Incubations were stopped by addition of 20 µl of lysis solution at pH 4.7, as described elsewhere. Plates were read for OD at λ 590 nm, in a Titertek Multiskan Plus plate reader (Flow Laboratories). Apoptosis was evaluated looking for the cleavage of the caspase substrate PARP with anti-PARP antibody (Roche), recognizing both the full length (116 kDa) and the cleaved fragment (85 kDa) of PARP.
# T3 sequence (Q9H2X6 whole entry): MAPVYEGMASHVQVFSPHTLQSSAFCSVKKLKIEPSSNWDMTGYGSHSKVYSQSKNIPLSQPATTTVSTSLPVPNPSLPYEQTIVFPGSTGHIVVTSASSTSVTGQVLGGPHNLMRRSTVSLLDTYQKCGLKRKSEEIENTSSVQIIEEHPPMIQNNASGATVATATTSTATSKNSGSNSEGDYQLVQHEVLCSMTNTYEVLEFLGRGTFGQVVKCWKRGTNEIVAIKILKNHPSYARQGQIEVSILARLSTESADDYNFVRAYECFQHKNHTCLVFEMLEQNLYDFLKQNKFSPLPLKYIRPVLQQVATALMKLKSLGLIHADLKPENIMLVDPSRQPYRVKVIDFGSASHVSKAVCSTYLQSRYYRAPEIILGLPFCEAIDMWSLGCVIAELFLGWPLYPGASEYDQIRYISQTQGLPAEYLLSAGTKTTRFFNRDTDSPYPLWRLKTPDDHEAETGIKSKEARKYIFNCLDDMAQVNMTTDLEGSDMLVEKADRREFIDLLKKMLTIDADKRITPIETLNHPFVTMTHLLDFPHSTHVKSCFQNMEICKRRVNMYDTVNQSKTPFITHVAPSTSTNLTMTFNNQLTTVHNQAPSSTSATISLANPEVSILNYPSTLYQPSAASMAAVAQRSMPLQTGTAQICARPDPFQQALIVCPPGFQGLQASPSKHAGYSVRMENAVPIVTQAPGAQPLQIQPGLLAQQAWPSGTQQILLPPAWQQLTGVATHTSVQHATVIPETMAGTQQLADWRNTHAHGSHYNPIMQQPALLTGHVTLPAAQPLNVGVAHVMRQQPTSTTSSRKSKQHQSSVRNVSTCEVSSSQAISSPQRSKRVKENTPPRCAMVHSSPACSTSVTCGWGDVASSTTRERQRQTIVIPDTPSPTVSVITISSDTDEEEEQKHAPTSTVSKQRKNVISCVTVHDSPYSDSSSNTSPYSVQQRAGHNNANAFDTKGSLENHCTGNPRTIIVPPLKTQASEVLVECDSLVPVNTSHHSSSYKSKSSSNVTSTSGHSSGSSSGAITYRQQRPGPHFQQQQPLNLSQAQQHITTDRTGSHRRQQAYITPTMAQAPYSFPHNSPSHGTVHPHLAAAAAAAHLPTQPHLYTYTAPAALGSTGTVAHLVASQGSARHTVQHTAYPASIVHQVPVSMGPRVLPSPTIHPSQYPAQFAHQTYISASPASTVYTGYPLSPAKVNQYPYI
# T4 sequence (P11309 whole entry, species assumed): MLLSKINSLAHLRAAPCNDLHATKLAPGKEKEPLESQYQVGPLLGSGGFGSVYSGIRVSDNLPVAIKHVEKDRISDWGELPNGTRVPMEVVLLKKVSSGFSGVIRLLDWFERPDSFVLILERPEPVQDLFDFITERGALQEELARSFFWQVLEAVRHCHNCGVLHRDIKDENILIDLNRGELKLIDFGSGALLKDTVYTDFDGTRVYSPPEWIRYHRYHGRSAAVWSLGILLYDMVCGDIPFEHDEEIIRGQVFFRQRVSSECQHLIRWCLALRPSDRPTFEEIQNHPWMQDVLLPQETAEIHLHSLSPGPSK
# Sequence of p38g MAPK (P53778 whole entry): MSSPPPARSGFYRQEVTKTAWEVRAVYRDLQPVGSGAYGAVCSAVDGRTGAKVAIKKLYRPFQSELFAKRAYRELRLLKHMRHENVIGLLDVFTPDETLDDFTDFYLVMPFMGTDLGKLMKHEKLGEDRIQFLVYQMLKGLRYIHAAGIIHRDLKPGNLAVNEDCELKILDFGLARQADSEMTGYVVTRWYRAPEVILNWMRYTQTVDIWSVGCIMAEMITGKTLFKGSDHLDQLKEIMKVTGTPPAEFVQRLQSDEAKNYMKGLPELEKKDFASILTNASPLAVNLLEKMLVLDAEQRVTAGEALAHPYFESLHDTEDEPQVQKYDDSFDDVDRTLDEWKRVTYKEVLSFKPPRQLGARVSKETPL
# Sequence of GCK (Q12851 whole entry): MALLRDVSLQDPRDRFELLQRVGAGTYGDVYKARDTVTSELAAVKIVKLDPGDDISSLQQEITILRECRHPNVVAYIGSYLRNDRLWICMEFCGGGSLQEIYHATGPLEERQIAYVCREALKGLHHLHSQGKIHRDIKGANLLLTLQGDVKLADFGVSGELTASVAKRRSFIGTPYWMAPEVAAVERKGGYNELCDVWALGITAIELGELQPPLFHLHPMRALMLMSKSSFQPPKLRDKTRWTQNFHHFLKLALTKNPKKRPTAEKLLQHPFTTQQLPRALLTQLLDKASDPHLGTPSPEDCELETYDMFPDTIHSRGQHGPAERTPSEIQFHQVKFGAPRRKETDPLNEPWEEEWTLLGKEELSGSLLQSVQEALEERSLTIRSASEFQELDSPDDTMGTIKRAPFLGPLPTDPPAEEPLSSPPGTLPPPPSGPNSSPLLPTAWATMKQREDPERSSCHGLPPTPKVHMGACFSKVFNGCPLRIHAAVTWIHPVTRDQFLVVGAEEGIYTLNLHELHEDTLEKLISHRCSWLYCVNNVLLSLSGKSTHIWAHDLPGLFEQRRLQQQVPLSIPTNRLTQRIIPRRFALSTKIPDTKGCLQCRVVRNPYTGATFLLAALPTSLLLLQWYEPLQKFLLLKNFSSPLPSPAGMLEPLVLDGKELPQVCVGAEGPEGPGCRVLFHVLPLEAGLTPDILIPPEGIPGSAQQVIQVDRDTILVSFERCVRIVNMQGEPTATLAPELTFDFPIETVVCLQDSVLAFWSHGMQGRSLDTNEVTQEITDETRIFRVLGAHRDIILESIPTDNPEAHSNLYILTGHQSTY
# Sequence of DAPK1 (P53355 whole entry): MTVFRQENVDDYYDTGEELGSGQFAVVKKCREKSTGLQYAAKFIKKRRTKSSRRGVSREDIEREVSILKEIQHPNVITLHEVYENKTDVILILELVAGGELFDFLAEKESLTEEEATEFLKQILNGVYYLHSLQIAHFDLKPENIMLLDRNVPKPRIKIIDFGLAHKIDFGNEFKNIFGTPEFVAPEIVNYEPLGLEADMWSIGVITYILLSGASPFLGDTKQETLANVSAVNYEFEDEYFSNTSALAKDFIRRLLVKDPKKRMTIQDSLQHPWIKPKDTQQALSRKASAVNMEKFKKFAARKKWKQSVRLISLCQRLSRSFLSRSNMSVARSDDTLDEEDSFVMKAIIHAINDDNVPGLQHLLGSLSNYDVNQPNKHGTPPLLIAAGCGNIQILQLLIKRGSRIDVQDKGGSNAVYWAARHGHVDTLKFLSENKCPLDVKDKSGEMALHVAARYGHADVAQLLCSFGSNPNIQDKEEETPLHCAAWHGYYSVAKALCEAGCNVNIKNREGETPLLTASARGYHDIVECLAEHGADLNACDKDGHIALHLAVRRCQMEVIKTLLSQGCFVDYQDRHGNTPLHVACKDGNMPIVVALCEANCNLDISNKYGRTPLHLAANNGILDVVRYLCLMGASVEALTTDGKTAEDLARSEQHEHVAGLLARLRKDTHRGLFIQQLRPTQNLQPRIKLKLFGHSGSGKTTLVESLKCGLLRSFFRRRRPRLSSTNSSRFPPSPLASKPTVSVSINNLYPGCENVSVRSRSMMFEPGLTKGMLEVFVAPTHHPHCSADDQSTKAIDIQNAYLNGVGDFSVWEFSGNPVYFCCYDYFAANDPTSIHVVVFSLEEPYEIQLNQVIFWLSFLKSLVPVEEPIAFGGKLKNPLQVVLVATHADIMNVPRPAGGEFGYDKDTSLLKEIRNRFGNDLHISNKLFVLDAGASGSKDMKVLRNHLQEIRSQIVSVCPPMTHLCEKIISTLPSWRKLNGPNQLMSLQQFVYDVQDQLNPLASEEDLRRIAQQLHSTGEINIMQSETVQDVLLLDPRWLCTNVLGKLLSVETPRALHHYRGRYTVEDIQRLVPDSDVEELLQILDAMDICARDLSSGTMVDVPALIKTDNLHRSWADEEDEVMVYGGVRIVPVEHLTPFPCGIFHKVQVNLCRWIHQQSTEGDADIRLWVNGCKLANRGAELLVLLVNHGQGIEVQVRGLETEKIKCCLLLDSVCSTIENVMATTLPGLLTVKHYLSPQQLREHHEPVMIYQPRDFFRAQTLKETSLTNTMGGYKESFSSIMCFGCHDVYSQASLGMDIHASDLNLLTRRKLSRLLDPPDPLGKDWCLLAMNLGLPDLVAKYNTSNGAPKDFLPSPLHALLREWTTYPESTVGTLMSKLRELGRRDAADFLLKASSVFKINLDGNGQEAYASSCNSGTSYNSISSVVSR
# T2 sequence (Q9H2X6 whole entry): as the sequence (Q9H2X6 whole entry) above
# T1 sequence (P19139 whole entry): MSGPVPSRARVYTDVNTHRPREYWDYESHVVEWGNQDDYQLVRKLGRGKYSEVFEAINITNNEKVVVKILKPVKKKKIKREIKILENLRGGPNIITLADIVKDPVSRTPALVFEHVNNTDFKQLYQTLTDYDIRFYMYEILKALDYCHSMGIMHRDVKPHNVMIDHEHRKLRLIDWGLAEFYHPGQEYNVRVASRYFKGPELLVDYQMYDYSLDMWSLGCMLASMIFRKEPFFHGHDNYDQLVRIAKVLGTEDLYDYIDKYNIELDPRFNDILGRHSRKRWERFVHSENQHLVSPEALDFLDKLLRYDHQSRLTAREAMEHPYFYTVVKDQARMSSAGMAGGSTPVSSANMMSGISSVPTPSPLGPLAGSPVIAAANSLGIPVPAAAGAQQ
# T1 sequence (P67874 whole entry partner): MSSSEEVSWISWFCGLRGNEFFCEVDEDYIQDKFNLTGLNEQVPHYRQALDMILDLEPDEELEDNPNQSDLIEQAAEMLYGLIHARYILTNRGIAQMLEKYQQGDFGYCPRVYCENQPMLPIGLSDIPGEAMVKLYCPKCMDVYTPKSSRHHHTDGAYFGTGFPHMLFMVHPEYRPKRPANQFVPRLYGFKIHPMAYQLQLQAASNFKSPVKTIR
structure (smiles),measurement,setting,value
"O=C1c2c(Br)c(Br)c(Br)c(Br)c2C(=O)N1c1ncc[nH]1 [TBID, 4,5,6,7-Tetrabromo-2-(1H-imidazol-2-yl)isoindoline-1,3-dione]",IC50,CK2,5.5 µM
same,IC50,CK1,> 40 µM
same,IC50,HIPK2,0.33 µM
same,phosphorylation level of p53 Ser46,Ser46 of p53,markedly reduces
same,IC50,"endogenous HIPK2; HIPK2 activity in cells treated with TBID, read-out: IC50 in cells (concentration required for half maximal inhibition)",~50 µM and 50 µM
same,endogenous HIPK2 activity upon cell treatment,"endogenous HIPK2; HepG2 cells, increasing concentrations, immunoprecipitated HIPK2",reduced in a dose dependent manner
same,number of kinases inhibited >90%,[1]; 10 µM TBID,1
same,Gini coefficient,"[1]; 10 µM, 76 PKs",0.592
same,Hit rate,"[1]; 10 µM, 76 PKs, kinases inhibited >50%",0.10
same,activity at 1 µM,GCK,100%
same,residual activity,"PIM1; 10 µM TBID, panel of 76 protein kinases",entirely unaffected
same,activity at 1 µM,"PIM1; TBID 1 μM, 125 kinase panel, read-out: % activity of the enzyme",104%
same,activity at 1 µM,MINK1,91%
same,activity at 1 µM,TTK,92%
same,activity at 1 µM,p38g MAPK,101%
same,activity at 1 µM,MARK3,115%
same,activity at 1 µM,DAPK1,92%
same,cell toxicity,HepG2 or CEM cells,devoid of cell toxicity
